Molecules are shown by their SMILES.

One data set has as its system HSV. The following applies: continuous suppressive administration, early intervention; cited from earlier work.
Data set [1] concerns patients and healthy volunteers. The conditions noted are these: over 900 patients and healthy volunteers. The text has this:
GLA is a fully synthetic TLR4 agonist, which has been examined in over 900 patients and healthy volunteers as an adjuvant with NY-ESO-1 protein and with infectious agent antigens such as in flu vaccines. […] A higher Mug dose cohort is currently being examined in this Phase 1 trial.

As for `CC(C)[C@H](N)C(=O)OCCOCn1cnc2c(=O)[nH]c(N)nc21` [Valacyclovir], the “reduction of HSV transmission” value in the data set with HSV is listed as “less than 50%”.

Consider `CCCCCCCCCCCCCC(=O)O[C@H](CCCCCCCCCCC)CC(=O)O[C@@H]1[C@@H](NC(=O)C[C@H](CCCCCCCCCCC)OC(=O)CCCCCCCCCCCCC)[C@H](OC[C@H]2O[C@H](O)[C@H](NC(=O)C[C@H](O)CCCCCCCCCCC)[C@@H](OC(=O)C[C@H](O)CCCCCCCCCCC)[C@@H]2O)O[C@H](CO)[C@H]1OP(=O)(O)O` [GLA, glucopyranosyl lipid A], for which the safety profile result in data set [1] is “established safety profile”.

Source of the values: patent US20170196954A1, “PRIME-BOOST REGIMENS WITH A TLR4 AGONIST ADJUVANT AND A LENTIVIRAL VECTOR” (priority 2014, published 2017).
